Source: US20260256792A1, “TREATMENT OF CHRONIC SPONTANEOUS URTICARIA BY ADMINISTERING (R)-2-[3-[4-AMINO-3-(2-FLUORO-4-PHENOXY-PHENYL)PYRAZOLO[3,4-D]PYRIMIDIN-1-YL]PIPERIDINE-1-CARBONYL]-4-METHYL-4-[4-(OXETAN-3-YL)PIPERAZIN-1-YL]PENT-2-ENENITRILE” (priority 2023, published 2026)

System: angioedema in CSU patients
Assay: Phase 2 CSU study: angioedema activity score over 7 days (AAS7)
Assay type: in vivo, human
Conditions: 400 mg QPM; for AAS7 Post-baseline Mean (SD) / Participants with AAS7 = 0, Responder n (%) / AAS7 % Change difference for rilzabrutinib vs. placebo LS Mean (95% CI) / AAS7 % Change from baseline LS Mean (SE) / AAS7 Change difference for rilzabrutinib vs. placebo LS Mean (95% CI) / AAS7 Change from baseline LS Mean (SE) / AAS7 = 0, Non-responder n (%) / AAS7 = 0, OR (95% CI) for rilzabrutinib vs. placebo / AAS7 = 0, RRD (%) for rilzabrutinib vs. placebo (95% CI): angioedema at baseline; for Non-responder n (%), AAS7 = 0 / OR (95% CI) for rilzabrutinib vs. placebo, AAS7 = 0 / RRD (%) for rilzabrutinib vs. placebo (95% CI), AAS7 = 0 / Responder n (%), AAS7 = 0: outlier removed
Description: The study comprises a 12 week, randomized, double-blind, placebo-controlled, multi-center, dose-ranging efficacy and safety phase, followed by a 40 week open label extension (OLE) phase (see FIG. 1). The study consists of three phases and an optional OLE phase. […] The weekly angioedema activity score (AAS7) was proposed as a tertiary endpoint. […] Patients were to complete the AAS using the e-diary. The e-diary was to be used once daily on the same time of each day recording of participant's answers to the angioedema activity score over 7 days (AAS7) questionnaire.

CC(C)(C=C(C#N)C(=O)N1CCC[C@@H](n2nc(-c3ccc(Oc4ccccc4)cc3F)c3c(N)ncnc32)C1)N1CCN(C2COC2)CC1 [rilzabrutinib, (R)-2-[3-[4-amino-3-(2-fluoro-4-phenoxy-phenyl)pyrazolo[3,4-d]pyrimidin-1-yl]piperidine-1-carbonyl]-4-methyl-4-[4-(oxetan-3-yl)piperazin-1-yl]pent-2-enenitrile]
AAS7 Post-baseline Mean (SD) (Week 8, omalizumab-naïve): 24.98 (23.29) | Participants with AAS7 = 0, Responder n (%) (Week 8, omalizumab-naïve): 7 (25.9) n (%) | AAS7 % Change difference for rilzabrutinib vs. placebo LS Mean (95% CI) (Week 9, ITT): 1.53 (−27.52, 30.59) % | AAS7 % Change from baseline LS Mean (SE) (Week 9, ITT): −48.50 (10.95) % | AAS7 Change difference for rilzabrutinib vs. placebo LS Mean (95% CI) (Week 9, ITT): 2.98 (−7.44, 13.40) | AAS7 Change from baseline LS Mean (SE) (Week 9, ITT): −26.47 (3.93) | AAS7 Post-baseline Mean (SD) (Week 9, ITT): 27.24 (21.46) | Non-responder n (%), AAS7 = 0 (Week 9, omalizumab-naïve): 24 (64.9) n (%) | OR (95% CI) for rilzabrutinib vs. placebo, AAS7 = 0 (Week 9, omalizumab-naïve): 0.520 | RRD (%) for rilzabrutinib vs. placebo (95% CI), AAS7 = 0 (Week 9, omalizumab-naïve): −15.0 % | Responder n (%), AAS7 = 0 (Week 9, omalizumab-naïve): 13 (35.1) n (%) | AAS7 % Change from baseline LS Mean (SE) (Week 9, omalizumab-naïve): −47.25 (11.58) % | AAS7 = 0, Non-responder n (%) (Week 9, omalizumab-naïve): 22 (81.5) n (%) | AAS7 = 0, OR (95% CI) for rilzabrutinib vs. placebo (Week 9, omalizumab-naïve): 0.431 | AAS7 = 0, RRD (%) for rilzabrutinib vs. placebo (95% CI) (Week 9, omalizumab-naïve): −15.5 % | AAS7 Post-baseline Mean (SD) (Week 9, omalizumab-naïve): 27.96 (21.62) | Participants with AAS7 = 0, Responder n (%) (Week 9, omalizumab-naïve): 5 (18.5) n (%) | AAS7 % Change difference for rilzabrutinib vs. placebo LS Mean (95% CI) (Week 10, ITT): −1.14 (−41.08, 38.79) % | AAS7 % Change from baseline LS Mean (SE) (Week 10, ITT): −50.13 (14.94) % | AAS7 Change difference for rilzabrutinib vs. placebo LS Mean (95% CI) (Week 10, ITT): 2.53 (−8.76, 13.81) | AAS7 Change from baseline LS Mean (SE) (Week 10, ITT): −27.81 (4.28) | AAS7 Post-baseline Mean (SD) (Week 10, ITT): 26.59 (23.15) | Non-responder n (%), AAS7 = 0 (Week 10, omalizumab-naïve): 20 (54.1) n (%) | OR (95% CI) for rilzabrutinib vs. placebo, AAS7 = 0 (Week 10, omalizumab-naïve): 0.927 | RRD (%) for rilzabrutinib vs. placebo (95% CI), AAS7 = 0 (Week 10, omalizumab-naïve): −1.9 % | Responder n (%), AAS7 = 0 (Week 10, omalizumab-naïve): 17 (45.9) n (%) | AAS7 = 0, Non-responder n (%) (Week 10, omalizumab-naïve): 20 (74.1) n (%) | AAS7 = 0, OR (95% CI) for rilzabrutinib vs. placebo (Week 10, omalizumab-naïve): 0.616 | AAS7 = 0, RRD (%) for rilzabrutinib vs. placebo (95% CI) (Week 10, omalizumab-naïve): −9.2 % | AAS7 Post-baseline Mean (SD) (Week 10, omalizumab-naïve): 27.70 (22.96) | Participants with AAS7 = 0, Responder n (%) (Week 10, omalizumab-naïve): 7 (25.9) n (%) | AAS7 % Change difference for rilzabrutinib vs. placebo LS Mean (95% CI) (Week 11, ITT): 7.61 (−19.90, 35.12) % | AAS7 Change difference for rilzabrutinib vs. placebo LS Mean (95% CI) (Week 11, ITT): 5.18 (−6.05, 16.41) | AAS7 Change from baseline LS Mean (SE) (Week 11, ITT): −28.68 (4.16) | AAS7 Post-baseline Mean (SD) (Week 11, ITT): 26.34 (24.19) | Non-responder n (%), AAS7 = 0 (Week 11, omalizumab-naïve): 20 (54.1) n (%) | OR (95% CI) for rilzabrutinib vs. placebo, AAS7 = 0 (Week 11, omalizumab-naïve): 0.819 | RRD (%) for rilzabrutinib vs. placebo (95% CI), AAS7 = 0 (Week 11, omalizumab-naïve): −4.7 % | Responder n (%), AAS7 = 0 (Week 11, omalizumab-naïve): 17 (45.9) n (%) | AAS7 = 0, Non-responder n (%) (Week 11, omalizumab-naïve): 19 (70.4) n (%) | AAS7 = 0, OR (95% CI) for rilzabrutinib vs. placebo (Week 11, omalizumab-naïve): 0.650 | AAS7 = 0, RRD (%) for rilzabrutinib vs. placebo (95% CI) (Week 11, omalizumab-naïve): −8.6 % | AAS7 Post-baseline Mean (SD) (Week 11, omalizumab-naïve): 27.44 (24.07) | Participants with AAS7 = 0, Responder n (%) (Week 11, omalizumab-naïve): 8 (29.6) n (%) | AAS7 % Change difference for rilzabrutinib vs. placebo LS Mean (95% CI) (Week 12, ITT): 8.18 (−17.80, 34.16) % | AAS7 % Change from baseline LS Mean (SE) (Week 12, ITT): −54.80 (9.75) % | AAS7 Change difference for rilzabrutinib vs. placebo LS Mean (95% CI) (Week 12, ITT): 6.68 (−4.00, 17.35) | AAS7 Change from baseline LS Mean (SE) (Week 12, ITT): −28.63 (4.01) | AAS7 Post-baseline Mean (SD) (Week 12, ITT): 24.92 (22.92) | Non-responder n (%), AAS7 = 0 (Week 12, omalizumab-naïve): 24 (64.9) n (%) | OR (95% CI) for rilzabrutinib vs. placebo, AAS7 = 0 (Week 12, omalizumab-naïve): 0.516 | RRD (%) for rilzabrutinib vs. placebo (95% CI), AAS7 = 0 (Week 12, omalizumab-naïve): −15.0 % | Responder n (%), AAS7 = 0 (Week 12, omalizumab-naïve): 13 (35.1) n (%) | AAS7 = 0, Non-responder n (%) (Week 12, omalizumab-naïve): 21 (77.8) n (%) | AAS7 = 0, OR (95% CI) for rilzabrutinib vs. placebo (Week 12, omalizumab-naïve): 0.571 | AAS7 = 0, RRD (%) for rilzabrutinib vs. placebo (95% CI) (Week 12, omalizumab-naïve): −11.2 % | AAS7 Change difference for rilzabrutinib vs. placebo LS Mean (95% CI) (Week 12, omalizumab-naïve): 6.41 (−5.00, 17.81) | AAS7 Change from baseline LS Mean (SE) (Week 12, omalizumab-naïve): −26.98 (4.16) | AAS7 Post-baseline Mean (SD) (Week 12, omalizumab-naïve): 25.87 (23.04)
